Laboratory results as given in patent US20230158157A1, “POTENT AND SELECTIVE DEGRADERS OF ALK” (DANA-FARBER CANCER INSTITUTE, INC., priority 2020, published 2023).
Like-named read-outs stand apart in the source and are kept apart here.

Legend:
H3122 cells = experiment: CTG; assay type: cell-based
EML4-ALK = biological target: T1, EML4-ALK (Homo sapiens, UniProt Q9UM73); experiment: EML4-ALK HiBit degradation assay in CRISPR-tagged H3122 cells (Nano-Glo HiBit Lytic Detection); assay type: cell-based
T1 construct: endogenous in cells; host or cells: H3122 (NSCLC), single-cell clone after CRISPR knock-in of HiBit; the other entry of the earlier key: EML4 (Q9HC35, Echinoderm microtubule-associated protein-like 4)
T1 sequence (Q9UM73 with tags, fused parts or gaps): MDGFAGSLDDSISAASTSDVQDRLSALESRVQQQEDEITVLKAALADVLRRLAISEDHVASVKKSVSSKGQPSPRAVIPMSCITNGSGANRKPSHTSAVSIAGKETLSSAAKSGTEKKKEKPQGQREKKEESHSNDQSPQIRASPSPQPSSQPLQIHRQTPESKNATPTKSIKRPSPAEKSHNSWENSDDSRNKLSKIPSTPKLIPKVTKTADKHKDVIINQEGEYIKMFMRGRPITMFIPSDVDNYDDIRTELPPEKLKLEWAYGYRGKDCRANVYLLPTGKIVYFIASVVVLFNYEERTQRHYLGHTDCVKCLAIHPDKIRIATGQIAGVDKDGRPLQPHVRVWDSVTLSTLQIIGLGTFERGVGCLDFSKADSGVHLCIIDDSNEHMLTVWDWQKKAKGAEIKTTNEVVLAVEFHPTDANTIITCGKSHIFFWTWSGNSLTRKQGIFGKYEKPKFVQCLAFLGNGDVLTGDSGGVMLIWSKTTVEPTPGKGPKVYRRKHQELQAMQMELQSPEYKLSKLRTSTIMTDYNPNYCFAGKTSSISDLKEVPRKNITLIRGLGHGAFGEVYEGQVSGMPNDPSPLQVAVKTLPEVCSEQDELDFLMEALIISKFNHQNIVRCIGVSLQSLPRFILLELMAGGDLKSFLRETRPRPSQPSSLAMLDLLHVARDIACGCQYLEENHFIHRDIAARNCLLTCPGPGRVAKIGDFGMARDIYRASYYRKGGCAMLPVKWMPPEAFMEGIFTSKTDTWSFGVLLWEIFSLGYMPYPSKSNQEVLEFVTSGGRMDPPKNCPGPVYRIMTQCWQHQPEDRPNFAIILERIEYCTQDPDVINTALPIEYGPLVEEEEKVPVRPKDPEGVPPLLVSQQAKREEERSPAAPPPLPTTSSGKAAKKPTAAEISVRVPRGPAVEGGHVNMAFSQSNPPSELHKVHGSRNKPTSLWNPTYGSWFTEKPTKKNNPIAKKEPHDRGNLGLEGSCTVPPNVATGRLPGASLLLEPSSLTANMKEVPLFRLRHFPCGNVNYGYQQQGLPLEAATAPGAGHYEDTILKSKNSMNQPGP
Experimental: (§1) NSCLC cell line H3122 was subjected to CRISPR to express EML4-ALK with HiBit-tag on its c-terminal. Single-cell clone was selected and expanded for the following assays that monitor endogenous EML4-ALK level in high throughput manner. Cells were seeded in 384-well white Tissue-culture plates at 3000 cells/well for 8 hours. […] HiBit signal was assessed using Nano-Glo® HiBit Lytic Detection System (Promega™). Degrader-treated was normalized by DMSO-treated controls and DC50 and Dmax were generated by GraphPad Prism® 8.0.
as §1, with “its c-terminus. A single-cell” for “its c-terminal. Single-cell”, “Degrader-treated cells were” for “Degrader-treated was”
as §1, with “its C-terminus. A single-cell” for “its c-terminal. Single-cell”, “Degrader-treated cells were” for “Degrader-treated was”

[1] = NCI-H3122, Table 1, first Dmax column, H3122 EML4-ALK-HiBit, 16 hours, read-out: Degradation Dmax
[2] = NCI-H3122, Table 1, second Dmax column, H3122 EML4-ALK-HiBit, 16 hours, read-out: Degradation Dmax
[3] = NCI-H3122, Table 1, average Dmax, read-out: Degradation Avg. Dmax
[4] = Table 1, first DC50 column, H3122 EML4-ALK-HiBit, 16 hours, read-out: Degradation DC50
[5] = Table 1, second DC50 column, H3122 EML4-ALK-HiBit, 16 hours, read-out: Degradation DC50
[6] = Table 1, average DC50, read-out: Degradation Avg. DC50
[7] = Homo sapiens, NCI-H3122, Table 1, read-out: CTG IC50
[8] = Homo sapiens, NCI-H3122, Table 2, read-out: CTG IC50
[9] = NCI-H3122, Table 2, first Dmax column, H3122 EML4-ALK-HiBit, 16 hours, read-out: Degradation Dmax
[10] = Table 2, first DC50 column, H3122 EML4-ALK-HiBit, 16 hours, read-out: Degradation DC50

Compound	Dmax (EML4-ALK; [1]) [%]	Dmax (EML4-ALK; [3]) [%]	DC50 (EML4-ALK; [4]) [nM]	DC50 (EML4-ALK; [6]) [nM]	IC50 (H3122 cells; [7]) [nM]	IC50 (H3122 cells; [8]) [nM]	other results
COc1cc(CCN(C)C(=O)CCOCCOCCNC(=O)COc2cccc3c2C(=O)N(C2CCC(=O)NC2=O)C3=O)c(C)cc1Nc1ncc(Cl)c(Nc2ccccc2P(C)(C)=O)n1 (stereo not drawn) [Compound 60]							IC50 (H3122 cells; Table 2, read-out: CTG IC50): > 10000 nM
COc1cc(CCN(C)C(=O)CCCCCCC(=O)N[C@H](C(=O)N2C[C@H](O)C[C@H]2C(=O)N[C@@H](C)c2ccc(-c3scnc3C)cc2)C(C)(C)C)c(C)cc1Nc1ncc(Cl)c(Nc2ccccc2S(=O)(=O)C(C)C)n1 [compound 40, N^1-(4-((5-chloro-4-((2-(isopropylsulfonyl)phenyl)amino)pyrimidin-2-yl)amino)-5-methoxy-2-methylphenethyl)-N^8-((S)-1-((2S,4R)-4-hydroxy-2-(((S)-1-(4-(4-methylthiazol-5-yl)phenyl)ethyl)carbamoyl)pyrrolidin-1-yl)-3,3-dimethyl-1-oxobutan-2-yl)-N^1-methyloctanediamide]	68.6	55.1	392	269	149		Dmax (EML4-ALK; [2]): 41.6%; DC50 (EML4-ALK; [5]): 145 nM
COc1cc(CCN(C)CCCCCOc2cc(-c3scnc3C)ccc2[C@H](C)NC(=O)[C@@H]2C[C@@H](O)CN2C(=O)[C@@H](NC(C)=O)C(C)(C)C)c(C)cc1Nc1ncc(Cl)c(Nc2ccccc2S(=O)(=O)C(C)C)n1 [Compound 54]	68.4		67	62	73.6		Dmax (EML4-ALK; [2]): 68.2%; DC50 (EML4-ALK; [5]): 57 nM
CC[C@@H](NC(=O)C1CC(NC(=O)CCCCCCC(=O)N(C)CCc2cc(OC)c(Nc3ncc(Cl)c(Nc4ccccc4S(=O)(=O)C(C)C)n3)cc2C)CN1C(=O)[C@@H](NC(=O)[C@H](C)NC)C(C)(C)C)c1ccccc1 (stereo partly drawn) [Compound 55]	74.6	88.2	624	492	296		Dmax (EML4-ALK; [2]): 102%; DC50 (EML4-ALK; [5]): 360 nM
COc1cc(CCN(C)C(=O)CCCCCCCCC(=O)N[C@H](C(=O)N2C[C@H](O)C[C@H]2C(=O)N[C@@H](C)c2ccc(-c3scnc3C)cc2)C(C)(C)C)c(C)cc1Nc1ncc(Cl)c(Nc2ccccc2S(=O)(=O)C(C)C)n1 [compound 42, N^1-(4-((5-chloro-4-((2-(isopropylsulfonyl)phenyl)amino)pyrimidin-2-yl)amino)-5-methoxy-2-methylphenethyl)-N^10-((S)-1-((2S,4R)-4-hydroxy-2-(((S)-1-(4-(4-methylthiazol-5-yl)phenyl)ethyl)carbamoyl)pyrrolidin-1-yl)-3,3-dimethyl-1-oxobutan-2-yl)-N^1-methyldecanediamide]	47.3	47.3	777	777	1310		
COc1cc(CCNCCCC(=O)N[C@H](C(=O)N2C[C@H](O)C[C@H]2C(=O)N[C@@H](C)c2ccc(-c3scnc3C)cc2)C(C)(C)C)c(C)cc1Nc1ncc(Cl)c(Nc2ccccc2S(=O)(=O)C(C)C)n1 [Compound 43]	38.1	38.1	1230	1230	289		
CC[C@@H](NC(=O)[C@@H]1C[C@H](NC(=O)CCCCCCCC(=O)N(C)CCc2cc(OC)c(Nc3ncc(Cl)c(Nc4ccccc4P(C)(C)=O)n3)cc2C)CN1C(=O)[C@@H](NC(=O)[C@H](C)NC)C(C)(C)C)c1ccccc1 [compound 75, N^1-(4-((5-chloro-4-((2-(dimethylphosphoryl)phenyl)amino)pyrimidin-2-yl)amino)-5-methoxy-2-methylphenethyl)-N^9-((3S,5S)-1-((S)-3,3-dimethyl-2-((S)-2-(methylamino)propanamido)butanoyl)-5-(((R)-1-phenylpropyl)carbamoyl)pyrrolidin-3-yl)-N^1-methylnonanediamide]							Dmax (EML4-ALK; [9]): 42.1%; DC50 (EML4-ALK; [10]): 381 nM
COc1cc(CCNCCCCCC#Cc2cccc3c2C(=O)N(C2CCC(=O)NC2=O)C3=O)c(C)cc1Nc1ncc(Cl)c(Nc2ccccc2S(=O)(=O)C(C)C)n1 (stereo not drawn) [compound 49, 4-(7-((4-((5-chloro-4-((2-(isopropylsulfonyl)phenyl)amino)pyrimidin-2-yl)amino)-5-methoxy-2-methylphenethyl)amino)hept-1-yn-1-yl)-2-(2,6-dioxopiperidin-3-yl)isoindoline-1,3-dione]					66.9		IC50 (H3122 cells; Homo sapiens, NCI-H3122, read-out: CTG IC50): 96.3 nM
CC[C@@H](NC(=O)[C@@H]1C[C@H](NC(=O)CCCCCCC(=O)N(C)CCc2cc(OC)c(Nc3ncc(Cl)c(Nc4ccccc4P(C)(C)=O)n3)cc2C)CN1C(=O)[C@@H](NC(=O)[C@H](C)NC)C(C)(C)C)c1ccccc1 [Compound 74]							Dmax (EML4-ALK; [9]): 47.1%; Dmax (EML4-ALK; NCI-H3122, Table 2, second Dmax column, H3122 EML4-ALK-HiBit, 16 hours, read-out: Degradation Dmax): 47.2%; Dmax (EML4-ALK; NCI-H3122, Table 2, average Dmax, read-out: Degradation Avg. Dmax): 47.1%; DC50 (EML4-ALK; [10]): 506 nM; DC50 (EML4-ALK; Table 2, second DC50 column, H3122 EML4-ALK-HiBit, 16 hours, read-out: Degradation DC50): 480 nM; DC50 (EML4-ALK; Table 2, average DC50, read-out: Degradation Avg. DC50): 490 nM

More lines, main results first:

Dmax (EML4-ALK; [1]) [%]	Dmax (EML4-ALK; [3]) [%]	DC50 (EML4-ALK; [4]) [nM]	DC50 (EML4-ALK; [6]) [nM]	IC50 (H3122 cells; [7]) [nM]	IC50 (H3122 cells; [8]) [nM]	Compound	other results
					301	COc1cc(CCN(C)C(=O)CCCNc2cccc3c2C(=O)N(C2CCC(=O)NC2=O)C3=O)c(C)cc1Nc1ncc(Cl)c(Nc2ccccc2P(C)(C)=O)n1 (stereo not drawn) [Compound 64]	
43.4	43.4	203	203	125		COc1cc(CCN(C)C(=O)CCCCCC#Cc2cccc3c2C(=O)N(C2CCC(=O)NC2=O)C3=O)c(C)cc1Nc1ncc(Cl)c(Nc2ccccc2S(=O)(=O)C(C)C)n1 (stereo not drawn) [compound 10, N-(4-((5-chloro-4-((2-(isopropylsulfonyl)phenyl)amino)pyrimidin-2-yl)amino)-5-methoxy-2-methylphenethyl)-8-(2-(2,6-dioxopiperidin-3-yl)-1,3-dioxoisoindolin-4-yl)-N-methyloct-7-ynamide]	
				136		COc1cc(CCN(C)C(=O)CCCCCCCCNc2cccc3c2C(=O)N(C2CCC(=O)NC2=O)C3=O)c(C)cc1Nc1ncc(Cl)c(Nc2ccccc2S(=O)(=O)C(C)C)n1 (stereo not drawn) [compound 3, N-(4-((5-chloro-4-((2-(isopropylsulfonyl)phenyl)amino)pyrimidin-2-yl)amino)-5-methoxy-2-methylphenethyl)-9-((2-(2,6-dioxopiperidin-3-yl)-1,3-dioxoisoindolin-4-yl)amino)-N-methylnonanamide]	Dmax (EML4-ALK; [2]): 38.4%; DC50 (EML4-ALK; [5]): 346 nM
					2290	COc1cc(CCN(C)C(=O)CCOCCOCCNc2cccc3c2C(=O)N(C2CCC(=O)NC2=O)C3=O)c(C)cc1Nc1ncc(Cl)c(Nc2ccccc2P(C)(C)=O)n1 (stereo not drawn) [Compound 67]	
					> 10000	COc1cc(CCN(C)C(=O)CCCCCNC(=O)COc2cccc3c2C(=O)N(C2CCC(=O)NC2=O)C3=O)c(C)cc1Nc1ncc(Cl)c(Nc2ccccc2P(C)(C)=O)n1 (stereo not drawn) [Compound 58]	
					477	COc1cc(CCN(C)C(=O)CCCCCCCC(=O)N[C@H](C(=O)N2C[C@H](O)C[C@H]2C(=O)N[C@@H](C)c2ccc(-c3scnc3C)cc2)C(C)(C)C)c(C)cc1Nc1ncc(Cl)c(Nc2ccccc2P(C)(C)=O)n1 [compound 69, N^1-(4-((5-chloro-4-((2-(dimethylphosphoryl)phenyl)amino)pyrimidin-2-yl)amino)-5-methoxy-2-methylphenethyl)-N^9-((S)-1-((2S,4R)-4-hydroxy-2-(((S)-1-(4-(4-methylthiazol-5-yl)phenyl)ethyl)carbamoyl)pyrrolidin-1-yl)-3,3-dimethyl-1-oxobutan-2-yl)-N^1-methylnonanediamide]	
					371	COc1cc(CCN(C)C(=O)CCCCCCC(=O)N[C@H](C(=O)N2C[C@H](O)CC2C(=O)N[C@@H](C)c2ccc(-c3scnc3C)cc2)C(C)(C)C)c(C)cc1Nc1ncc(Cl)c(Nc2ccccc2P(C)(C)=O)n1 (stereo partly drawn) [compound 70, N^1-(4-((5-chloro-4-((2-(dimethylphosphoryl)phenyl)amino)pyrimidin-2-yl)amino)-5-methoxy-2-methylphenethyl)-N^8-((S)-1-((2S,4R)-4-hydroxy-2-(((S)-1-(4-(4-methylthiazol-5-yl)phenyl)ethyl)carbamoyl)pyrrolidin-1-yl)-3,3-dimethyl-1-oxobutan-2-yl)-N′-methyloctanediamide]	
